Source: patent US20110230430A1, “SAPONIN EXTRACT FROM SAPONARIA SPP. AND USES THEREOF” (NATIONAL RESEARCH COUNCIL OF CANADA, priority 2008, published 2011)

What was measured:
PC-3 cells = experiment: Dual Sensor: MitoCasp Assay in PC-3 prostate cancer cells; assay type: cell-based, human
Excerpt: (§1) Techniques to assay enzymatic and signaling processes involved in apoptosis have been developed as standard protocols. One example of an early step in apoptosis, is the release of cytochrome C from mitochondria and the activation of caspase-3. Induction of the caspases (a series of cytosolic proteases) is one of the most consistently observed features of apoptosis. Caspases are a family of proteolytic enzymes that transmit the apoptotic signal using a proteolytic cascade. […] Caspases 3 and 7 are effector caspases, central to the caspase cascade pathways. In particular, caspase-3 plays a central role in the process. When caspases are activated, they cleave target proteins; one of the most important of these is poly-(ADP-ribose) polymerase (PARP), which is a protein located in the nucleus. Therefore, assays detecting release of cytochrome C, detecting caspase-3 activity and detecting PARP degradation are effective determinants of apoptosis. The loss of mitochondrial membrane potential is known to occur during apoptosis. To analyze mitochondrial membrane potential, a cationic dye may be used which accumulates in the mitochondria of healthy cells. Collapse of the mitochondrial membrane potential during apoptosis prevents the dye from accumulating in the mitochondria resulting in a decrease in fluorescent intensity that can be detected with flow cytometry. Dual Sensor: MitoCasp™ (Cell Technology) used herein in the Examples is an assay that measures caspase 3/7 activity and cells with decreased mitochondrial membrane potential. In this assay, caspase 3/7 activity is detected using a cell permeable carboxyfluorescein labeled caspase inhibitor, which binds covalently to active caspases 3 and 7. Cells that contain bound inhibitor are detected by an increase in fluorescence when samples are analyzed by flow cytometry.
PC-3 cells (ATCC #CRL-1435) were derived from a prostate adenocarcinoma (Kaighn et al., 1979). They were maintained in RPMI 1640 medium (Gibco) supplemented with 10% fetal bovine serum (Cansera), 100 U/mL penicillin, and 100 μg/mL streptomycin and 0.25 μg/mL amphotericin B. Cultures were maintained in medium at 37° C. with 5% CO2 and 100% relative humidity.
To harvest adherent cells, the existing medium was removed and cells were dissociated with 0.25% (w/v) trypsin-EDTA·4Na in Hank's Balanced Salt Solution (Gibco). To block the proteolytic action of the trypsin, the cells were resuspended in an excess of media containing fetal bovine serum. Cells were transferred to a 15 mL conical centrifuge tube and pelleted by centrifugation at 500×g for 5 min. Cell pellets were resuspended in media, and an aliquot of the cells were seeded into a new flask.
PC-3 cells were seeded in tissue culture flasks with regular growth medium and maintained under normal conditions. […] Following incubation under normal growth conditions for the specified time, cells were washed once with cold phosphate-buffered saline (PBS) (137 mM NaCl, 2.7 mM KCl, 4.3 mM Na2HPO4.7H2O, 1.4 mM KH2PO4) and harvested as previously described. Assays were carried out according to instructions given in kits. All Flow Cytometry was performed using a Coulter Epics XL (Beckman).
(§2) Following centrifugation at 500×g for 5 min, cell pellets were resuspended in PBS at 3.3×10^6 cells/mL. 300 μL cell suspension was mixed with 10 μL each of 30X Mitochondria Membrane Potential Dye and 30X Caspase 3/7 detection reagent. Following incubation for 60 min under normal growth conditions, cells were washed twice with 1× wash buffer and resuspended in 0.5 mL 1× wash buffer. Samples were analyzed by flow cytometry measuring the fluorescence emissions from 515 nm to 530 nm for caspase detection, and 574 nm to 600 nm for mitochondrial membrane potential detection.

MDA-MB-231 cells = experiment: Dual Sensor: MitoCasp Assay in MDA-MB-231 breast cancer cells; assay type: cell-based, human
Excerpt: as §1, §2
The MDA-MB-231 cell line (ATCC #HTB-26) was derived from the pleural effusion of a patient with a breast adenocarcinoma (Cailleau et al., 1974). The cells were maintained in RPMI 1640 (Gibco) supplemented with 10% fetal bovine serum (Camera), 100 U/mL penicillin, 100 μg/mL streptomycin and 0.25 μg/mL amphotericin B. Cultures were maintained in medium at 37° C. with 5% CO2 and 100% relative humidity. […]

CRL-2522 cells = experiment: Dual Sensor: MitoCasp Assay in CRL-2522 normal fibroblast cells; assay type: cell-based, human
Excerpt: as §1, §2
CRL-2522 cells, acquired from ATCC, (American Type Culture Collection) are normal fibroblast cells that originated from human foreskin. CRL-2522 cells were maintained in RPMI 1640 medium (Gibco) supplemented with 10% fetal bovine serum (Cansera), 100 U/mL penicillin, 100 μg/mL streptomycin and 0.25 μg/mL amphotericin B. Cultures were maintained in medium at 37° C. with 5% CO2 and 100% relative humidity. […]

HT-29 cancer cells = experiment: Dual Sensor: MitoCasp Assay in HT-29 colon cancer cells; assay type: cell-based, human; conditions: HT-29 cells, 2.5 μM, 5.0 μM and 10 μM, 24 hours
Excerpt: as §1, with “To analyze mitochondrial membrane potential, a cationic dye may be used which accumulates in the mitochondria of healthy cells.” left out, “Dual Sensor: MitoCasp™ (Cell Technology) used herein in the Examples is an assay that measures caspase 3/7 activity and cells with decreased mitochondrial membrane potential.” left out
Following PC1448 treatment, adherent and non-adherent cells were harvested and washed with cold PBS. […] Samples were analyzed by flow cytometry measuring the fluorescence emissions from 515 nm to 530 nm for caspase detection, and 574 nm to 600 nm for mitochondrial membrane potential detection. […]
HT-29 cancer cells were treated with 2.5 μM, 5.0 μM and 10 μM of PC1526 or PC1448 for 23 hours, or with 2.5 μM, 5.0 μM and 10 μM PC1422 for 24 hours and assessed using the Dual Sensor: MitoCasp™ Assay. […]

MCF-7 cells = experiment: Dual Sensor: MitoCasp Assay in MCF-7 breast cancer cells; assay type: cell-based, human; conditions: 5 and 10 μM, 24 hours
Excerpt: Techniques to assay enzymatic and signaling processes involved in apoptosis have been developed as standard protocols. One example of an early step in apoptosis, is the release of cytochrome C from mitochondria and the activation of caspase-3. Induction of the caspases (a series of cytosolic proteases) is one of the most consistently observed features of apoptosis. Caspases are a family of proteolytic enzymes that transmit the apoptotic signal using a proteolytic cascade. […] Caspases 3 and 7 are effector caspases, central to the caspase cascade pathways. In particular, caspase-3 plays a central role in the process. […] Collapse of the mitochondrial membrane potential during apoptosis prevents the dye from accumulating in the mitochondria resulting in a decrease in fluorescent intensity that can be detected with flow cytometry. […] In this assay, caspase 3/7 activity is detected using a cell permeable carboxyfluorescein labeled caspase inhibitor, which binds covalently to active caspases 3 and 7. Cells that contain bound inhibitor are detected by an increase in fluorescence when samples are analyzed by flow cytometry. […]
MCF-7 cells were treated with 5.0 μM and 10 μM of saponins PC1526, PC1464 and PC1422 for 24 hours and assessed using Dual Sensor: MitoCasp™ Assay.

[1] = Haemolytic properties of selected saponins; conditions: saponins purified to more than 75%
Excerpt: The haemolytic properties of the various saponins that have been purified to more than 75% have been examined and are provided in Table 39. Haemolytic properties are not directly related to anti-cancer or apoptosis inducing properties of saponins but may be related to toxicity and utility of the saponins for preparation of injectable formulations. Saponins most suitable for injectable formulation will be less haemolytic. QS21, a purified Quillaja saponaria saponin with known haemolytic activity is used as reference.

[2] = system: PC-3, MDA-MB-231, WiDr, and HT-29 Cells; experiment: Order of apoptosis potency across cancer cell lines; design: species or system human; conditions: rank based on responses observed in PC-3, MDA-MB-231, WiDr, and HT-29 Cells; 1 = most active
[3] = 5.0 μM saponin, 36 hours (comparison of saponins)
[4] = CRL-2522 cells, 2.5 μM PC1422, 36 hr
[5] = CRL-2522 cells, 5.0 μM PC1422, 36 hr
[6] = CRL-2522 cells, 10.0 μM PC1422, 36 hr
[7] = CRL-2522 cells, 15.0 μM PC1422, 36 hr

Vaccaroside E [PC1422]
Cells with caspase 3/7 activity (PC-3 cells; 2.5 μM PC1422, 36 hr): 42.2%
Cells with decreased mitochondrial membrane potential (PC-3 cells; 2.5 μM PC1422, 36 hr): 23.6%
Cells with caspase 3/7 activity (PC-3 cells; 5.0 μM PC1422, 36 hr): 49.1%
Cells with decreased mitochondrial membrane potential (PC-3 cells; 5.0 μM PC1422, 36 hr): 30.0%
Cells with caspase 3/7 activity (PC-3 cells; 10.0 μM PC1422, 36 hr): 55.7%
Cells with decreased mitochondrial membrane potential (PC-3 cells; 10.0 μM PC1422, 36 hr): 53.7%
Cells with caspase 3/7 activity (PC-3 cells; 15.0 μM PC1422, 36 hr): 57.1%
Cells with decreased mitochondrial membrane potential (PC-3 cells; 15.0 μM PC1422, 36 hr): 53.3%
Concentration of greatest effect on apoptosis (PC-3 cells; 36 hours): above 10 μM
Induction of apoptosis at concentrations as low as (PC-3 cells; 36 hours): 2.5 µM
Cells with caspase 3/7 activity (MDA-MB-231 cells; 2.5 μM PC1422, 36 hr): 21.1%
Cells with decreased mitochondrial membrane potential (MDA-MB-231 cells; 2.5 μM PC1422, 36 hr): 13.7%
Cells with caspase 3/7 activity (MDA-MB-231 cells; 5.0 μM PC1422, 36 hr): 32.2%
Cells with decreased mitochondrial membrane potential (MDA-MB-231 cells; 5.0 μM PC1422, 36 hr): 32.9%
Cells with caspase 3/7 activity (MDA-MB-231 cells; [3]): 41.2%
Cells with decreased mitochondrial membrane potential (MDA-MB-231 cells; [3]): 21.7%
Cells with caspase 3/7 activity (MDA-MB-231 cells; 10.0 μM PC1422, 36 hr): 41.6%
Cells with decreased mitochondrial membrane potential (MDA-MB-231 cells; 10.0 μM PC1422, 36 hr): 46.0%
Cells with caspase 3/7 activity (MDA-MB-231 cells; 15.0 μM PC1422, 36 hr): 26.7%
Cells with decreased mitochondrial membrane potential (MDA-MB-231 cells; 15.0 μM PC1422, 36 hr): 65.2%
Concentration of greatest effect on apoptosis (MDA-MB-231 cells; 36 hours): 15 µM
Induction of apoptosis at concentrations as low as (MDA-MB-231 cells; 36 hours): 2.5 µM
Cells with caspase 3/7 activity (CRL-2522 cells; [4]): 3.1%
Cells with decreased mitochondrial membrane potential (CRL-2522 cells; [4]): 3.4%
Cells with caspase 3/7 activity (CRL-2522 cells; [5]): 15.3%
Cells with decreased mitochondrial membrane potential (CRL-2522 cells; [5]): 5.1%
Cells with caspase 3/7 activity (CRL-2522 cells; [6]): 12.8%
Cells with decreased mitochondrial membrane potential (CRL-2522 cells; [6]): 19.2%
Cells with caspase 3/7 activity (CRL-2522 cells; [7]): 7.3%
Cells with decreased mitochondrial membrane potential (CRL-2522 cells; [7]): 26.2%
Cells with Caspase 3/7 activity and decreased mitochondrial membrane potential vs untreated (in words) (CRL-2522 cells; CRL-2522 cells, PC1422 15.0-2.5 μM, 36 hours): modest increase
Apoptosis in non-cancerous cell line (summary in words) (CRL-2522 cells; fibroblast cell line CRL-2522, summary of the Examples): no or little apoptosis
Caspase 3/7 activity compared to untreated cells / induction of apoptosis (in words, FIG. 5) (HT-29 cancer cells): increase in caspase 3/7 activity
Induction of apoptosis (in words, FIG. 16) (MCF-7 cells): do not induce apoptosis
HD50 [1]: 43.8 µM
Order of Apoptosis Potency [2]: 4
